Experimental data taken from PubChem BioAssay (NCI).
Values joined by “and” are separate entries in the source; they are usually repeats but may differ in a detail not shown here. Identical values can stand only once.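 A five-concentration, 48-hour dose response in 96-well plates underlies each endpoint, interpolated linearly between surrounding concentrations. GI50 marks 50% less growth. TGI denotes the concentration required for complete inhibition of growth.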

Key:
Test in all cases: NCI tumour cell line growth inhibition, 48 h; in the data active means GI50 below about 0.43 µM; inactive means the rest
SNB-75 CNS = test system: SNB-75 CNS
PC-3 prostate = test system: PC-3 prostate
CAKI-1 renal = test system: CAKI-1 renal
HS 578T breast = test system: HS 578T breast
HCT-116 colon = test system: HCT-116 colon
U251 CNS = test system: U251 CNS
OVCAR-8 ovarian = test system: OVCAR-8 ovarian
HCC-2998 colon = test system: HCC-2998 colon
K-562 leukemia = test system: K-562 leukemia
COLO 205 colon = test system: COLO 205 colon
NCI-H226 lung = test system: NCI-H226 lung
KM12 colon = test system: KM12 colon
MALME-3M melanoma = test system: MALME-3M melanoma
SF-268 CNS = test system: SF-268 CNS
MDA-MB-435 = test system: MDA-MB-435
SK-MEL-28 melanoma = test system: SK-MEL-28 melanoma
SK-MEL-5 melanoma = test system: SK-MEL-5 melanoma
SK-OV-3 ovarian = test system: SK-OV-3 ovarian
MDA-MB-231 breast = test system: MDA-MB-231 breast
HCT-15 colon = test system: HCT-15 colon
EKVX NSCLC = test system: EKVX NSCLC
SR leukemia = test system: SR leukemia
A498 renal = test system: A498 renal
M14 melanoma = test system: M14 melanoma
SW-620 colon = test system: SW-620 colon
UO-31 renal = test system: UO-31 renal
HOP-62 NSCLC = test system: HOP-62 NSCLC
IGROV1 ovarian = test system: IGROV1 ovarian
786-0 renal = test system: 786-0 renal
DU-145 prostate = test system: DU-145 prostate
OVCAR-4 ovarian = test system: OVCAR-4 ovarian
TK-10 renal = test system: TK-10 renal
UACC-257 melanoma = test system: UACC-257 melanoma
MOLT-4 leukemia = test system: MOLT-4 leukemia
MDA-N = test system: MDA-N
BT-549 breast = test system: BT-549 breast
T-47D breast = test system: T-47D breast
CCRF-CEM leukemia = test system: CCRF-CEM leukemia
NCI/ADR-RES ovarian = test system: NCI/ADR-RES ovarian
RPMI-8226 leukemia = test system: RPMI-8226 leukemia
NCI-H460 lung = test system: NCI-H460 lung
SF-295 CNS = test system: SF-295 CNS
SNB-19 CNS = test system: SNB-19 CNS
ACHN renal = test system: ACHN renal
RXF 393 renal = test system: RXF 393 renal
A549 NSCLC = test system: A549 NSCLC
NCI-H522 lung = test system: NCI-H522 lung
SN12C renal = test system: SN12C renal
MCF7 breast = test system: MCF7 breast
OVCAR-3 ovarian = test system: OVCAR-3 ovarian
SF-539 CNS = test system: SF-539 CNS
UACC-62 melanoma = test system: UACC-62 melanoma
HT29 colon = test system: HT29 colon
HOP-92 NSCLC = test system: HOP-92 NSCLC
SK-MEL-2 melanoma = test system: SK-MEL-2 melanoma
OVCAR-5 ovarian = test system: OVCAR-5 ovarian
HL-60(TB) leukemia = test system: HL-60(TB) leukemia
NCI-H23 lung = test system: NCI-H23 lung
LOX IMVI melanoma = test system: LOX IMVI melanoma

CC1CN(CCO)CC(C)O1 (configuration not stated)
> 100 µM: TGI (SNB-75 CNS) | TGI (PC-3 prostate) | TGI (CAKI-1 renal) | TGI (HS 578T breast) | TGI (HCT-116 colon) | TGI (U251 CNS) | TGI (OVCAR-8 ovarian) | TGI (HCC-2998 colon) | TGI (K-562 leukemia) | TGI (COLO 205 colon) | TGI (NCI-H226 lung) | TGI (KM12 colon) | TGI (MALME-3M melanoma) | TGI (SF-268 CNS) | TGI (MDA-MB-435) | TGI (SK-MEL-28 melanoma) | TGI (SK-MEL-5 melanoma) | TGI (SK-OV-3 ovarian) | TGI (MDA-MB-231 breast) | TGI (HCT-15 colon) | TGI (EKVX NSCLC) | TGI (SR leukemia) | TGI (A498 renal) | TGI (M14 melanoma) | TGI (SW-620 colon) | TGI (UO-31 renal) | TGI (HOP-62 NSCLC) | TGI (IGROV1 ovarian) | TGI (786-0 renal) | TGI (DU-145 prostate) | TGI (OVCAR-4 ovarian) | TGI (TK-10 renal) | TGI (UACC-257 melanoma) | TGI (MOLT-4 leukemia) | TGI (MDA-N) | TGI (BT-549 breast) | TGI (T-47D breast) | TGI (CCRF-CEM leukemia) | TGI (NCI/ADR-RES ovarian) | TGI (RPMI-8226 leukemia) | TGI (NCI-H460 lung) | TGI (SF-295 CNS) | TGI (SNB-19 CNS) | TGI (ACHN renal) | TGI (RXF 393 renal) | TGI (A549 NSCLC) | TGI (NCI-H522 lung) | TGI (SN12C renal) | TGI (MCF7 breast) | TGI (OVCAR-3 ovarian) | TGI (SF-539 CNS) | TGI (UACC-62 melanoma) | TGI (HT29 colon) | TGI (HOP-92 NSCLC) | TGI (SK-MEL-2 melanoma) | TGI (OVCAR-5 ovarian) | TGI (HL-60(TB) leukemia) | TGI (NCI-H23 lung)

CCc1nc(N)nc(N)c1-c1ccc(Cl)cc1
> 100 µM and 25.7 µM: TGI (HCC-2998 colon)
> 100 µM: TGI (SNB-75 CNS) | TGI (PC-3 prostate) | TGI (CAKI-1 renal) | TGI (LOX IMVI melanoma) | TGI (HS 578T breast) | TGI (HCT-116 colon) | TGI (U251 CNS) | TGI (OVCAR-8 ovarian) | TGI (COLO 205 colon) | TGI (NCI-H226 lung) | TGI (KM12 colon) | TGI (SF-268 CNS) | TGI (MDA-MB-435) | TGI (SK-MEL-28 melanoma) | TGI (SK-OV-3 ovarian) | TGI (MDA-MB-231 breast) | TGI (HCT-15 colon) | TGI (EKVX NSCLC) | TGI (SR leukemia) | TGI (M14 melanoma) | TGI (SW-620 colon) | TGI (UO-31 renal) | TGI (HOP-62 NSCLC) | TGI (IGROV1 ovarian) | TGI (786-0 renal) | TGI (DU-145 prostate) | TGI (OVCAR-4 ovarian) | TGI (TK-10 renal) | TGI (UACC-257 melanoma) | TGI (MOLT-4 leukemia) | TGI (MDA-N) | TGI (BT-549 breast) | TGI (T-47D breast) | TGI (NCI/ADR-RES ovarian) | TGI (RPMI-8226 leukemia) | TGI (NCI-H460 lung) | TGI (SNB-19 CNS) | TGI (ACHN renal) | TGI (RXF 393 renal) | TGI (A549 NSCLC) | TGI (NCI-H522 lung) | TGI (SN12C renal) | TGI (MCF7 breast) | TGI (OVCAR-3 ovarian) | TGI (SF-539 CNS) | TGI (UACC-62 melanoma) | TGI (HT29 colon) | TGI (HOP-92 NSCLC) | TGI (SK-MEL-2 melanoma) | TGI (OVCAR-5 ovarian) | TGI (HL-60(TB) leukemia) | TGI (NCI-H23 lung)
> 100 µM and 19.8 µM: TGI (SK-MEL-5 melanoma)
> 26.5 µM: TGI (K-562 leukemia)
37.9 µM and > 100 µM: TGI (SF-295 CNS)
> 100 µM and 99.6 µM: TGI (MALME-3M melanoma)
inactive: GI50 (SNB-75 CNS) > 100 µM | GI50 (PC-3 prostate) 5.21 µM | GI50 (CAKI-1 renal) 6.34 µM | GI50 (LOX IMVI melanoma) 2.82 µM | GI50 (HS 578T breast) > 100 µM | GI50 (HCT-116 colon) 2.85 µM | GI50 (U251 CNS) 5.65 µM | GI50 (NCI-H226 lung) 47.9 µM | GI50 (KM12 colon) 16.1 µM | GI50 (MALME-3M melanoma) 59.3 µM | GI50 (SF-268 CNS) 6.89 µM | GI50 (MDA-MB-435) 4.6 µM | GI50 (SK-MEL-28 melanoma) > 100 µM | GI50 (SK-MEL-5 melanoma) 4.14 µM | GI50 (SK-OV-3 ovarian) 84.9 µM | GI50 (MDA-MB-231 breast) 34.2 µM | GI50 (HCT-15 colon) 4.74 µM | GI50 (EKVX NSCLC) 5.7 µM | GI50 (SR leukemia) 18.7 µM | GI50 (A498 renal) 24.1 µM | GI50 (SW-620 colon) 3.99 µM | GI50 (UO-31 renal) 14.5 µM | GI50 (HOP-62 NSCLC) 26.7 µM | GI50 (IGROV1 ovarian) 11.4 µM | GI50 (786-0 renal) 5.89 µM | GI50 (DU-145 prostate) 13.2 µM | GI50 (OVCAR-4 ovarian) 60 µM | GI50 (TK-10 renal) 88.3 µM | GI50 (UACC-257 melanoma) 10.3 µM | GI50 (MOLT-4 leukemia) 25.6 µM | GI50 (T-47D breast) 45.5 µM | GI50 (NCI/ADR-RES ovarian) 5.93 µM | GI50 (RPMI-8226 leukemia) 56.6 µM | GI50 (NCI-H460 lung) 1.73 µM | GI50 (SF-295 CNS) 3.17 µM | GI50 (SNB-19 CNS) 7.75 µM | GI50 (RXF 393 renal) 22.6 µM | GI50 (A549 NSCLC) 2.23 µM | GI50 (SN12C renal) 5.04 µM | GI50 (MCF7 breast) 15.3 µM | GI50 (OVCAR-3 ovarian) 36.3 µM | GI50 (SF-539 CNS) 9.43 µM | GI50 (UACC-62 melanoma) 3.93 µM | GI50 (HOP-92 NSCLC) 17.4 µM | GI50 (OVCAR-5 ovarian) 31.7 µM | GI50 (HL-60(TB) leukemia) 6.67 µM | GI50 (NCI-H23 lung) 7.62 µM
> 100 µM and 42.4 µM: TGI (A498 renal)

CN(C(=O)C12C3C4(C(=O)O)C1(C(=O)N(C)C(C)(C)C)C1C2(C(=O)O)C3(C(=O)N(C)C(C)(C)C)C14C(=O)N(C)C(C)(C)C)C(C)(C)C (configuration not stated)
> 100 µM: TGI (PC-3 prostate) | TGI (CAKI-1 renal) | TGI (LOX IMVI melanoma) | TGI (HS 578T breast) | TGI (HCT-116 colon) | TGI (U251 CNS) | TGI (OVCAR-8 ovarian) | TGI (HCC-2998 colon) | TGI (K-562 leukemia) | TGI (COLO 205 colon) | TGI (KM12 colon) | TGI (SF-268 CNS) | TGI (MDA-MB-435) | TGI (SK-MEL-28 melanoma) | TGI (SK-MEL-5 melanoma) | TGI (MDA-MB-231 breast) | TGI (HCT-15 colon) | TGI (EKVX NSCLC) | TGI (SR leukemia) | TGI (A498 renal) | TGI (M14 melanoma) | TGI (SW-620 colon) | TGI (UO-31 renal) | TGI (HOP-62 NSCLC) | TGI (IGROV1 ovarian) | TGI (786-0 renal) | TGI (DU-145 prostate) | TGI (OVCAR-4 ovarian) | TGI (TK-10 renal) | TGI (UACC-257 melanoma) | TGI (MOLT-4 leukemia) | TGI (MDA-N) | TGI (BT-549 breast) | TGI (T-47D breast) | TGI (CCRF-CEM leukemia) | TGI (NCI/ADR-RES ovarian) | TGI (NCI-H460 lung) | TGI (SF-295 CNS) | TGI (SNB-19 CNS) | TGI (ACHN renal) | TGI (RXF 393 renal) | TGI (A549 NSCLC) | TGI (NCI-H522 lung) | TGI (SN12C renal) | TGI (MCF7 breast) | TGI (OVCAR-3 ovarian) | TGI (SF-539 CNS) | TGI (UACC-62 melanoma) | TGI (HT29 colon) | TGI (HOP-92 NSCLC) | TGI (SK-MEL-2 melanoma) | TGI (OVCAR-5 ovarian) | TGI (HL-60(TB) leukemia) | TGI (NCI-H23 lung)
